The conditions of series [1]: amide bond, 30-membered ring, DMF, resin, […], with chain assembly.
In series [2] the target is T1, mouse HER2 (23-653) (Mus musculus, UniProt P70424). Description: TR-FRET competition assay for peptide potency, mouse HER2. It counts as binding. The arrangement: mouse HER2 (23-653) using a Cy5 labeled peptide as a probe; made in house; host or cells: mammalian cells.
Series [3] has as its target T2, human HER2 (23-652) (Homo sapiens, UniProt P04626). Description: Surface plasmon resonance (SPR) for assessment of peptide affinity, human HER2. It counts as binding. Also noted: towards human HER2 (23-652) and mouse HER2 (23-653); made in house. The method in brief:
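Binding kinetics fitted from sensorgrams with 280 s peptide association then 3000 s dissociation (30 uL/min), using HER2 (23-652) either directly immobilized (SA/CM5) or anti-Fc-captured; 3 M magnesium chloride used for regeneration.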

Series [4] has as its target T2, human HER2 (23-652). Description: TR-FRET competition assay for peptide potency, human HER2. It counts as binding. The arrangement: towards human HER2 (23-652) and mouse HER2 (23-653); made in house; host or cells: mammalian cells.
The target in series [5] is T1, mouse HER2 (23-653). Put plainly: Surface plasmon resonance (SPR) for assessment of peptide affinity, mouse HER2. It counts as binding. Also noted: mouse HER2 (23-653) using a Cy5 labeled peptide as a probe; made in house. The text has this: Each protein was immobilized either onto a SA sensorchip (Cytiva, BR-1005-31) or CM5 sensorchip (Cytiva, BR-1005-30) to a density of 800-2000 RU.

[6] abbreviates: TR-FRET competition with Cy5 labeled peptide probe, 0.1 nM mouse HER2, 24 h incubation, read-out: moHER2 TR-FRET IC50.
Where [7] appears, read: SPR, human HER2 extracellular domain, 25° C., 1:1 binding model, read-out: huHER2-SPR-ONC KD.
Setting [8] is: TR-FRET competition with Cy5 labeled peptide probe, 0.1 nM human HER2, 24 h incubation, read-out: huHER2 TR-FRET IC50.
The mark [9] stands for this setting: SPR, mouse HER2 extracellular domain, 25° C., 1:1 binding model, read-out: moHER2-SPR-ONC KD.
Setting [10] is: value in parentheses (**): recalculated after further repetition, read-out: moHER2 TR-FRET IC50, recalculated value achieved after further repetition.
[11] abbreviates: value in parentheses (**): recalculated after further repetition, read-out: huHER2 TR-FRET IC50, recalculated value achieved after further repetition.

Counter-ions that a name gives are not always drawn. Like-named read-outs stand apart in the source and are kept apart here. Starred links: 1 amine or outer side, 2 acyl side, 3 side chain; linkers in the order of their positions; H or OH if unused. Positions of bridges follow the written chain, without caps; N, C: chain ends. Non-standard residues stand in square brackets, D forms with d. Residues, ends and D or L forms follow the SMILES beside them. *: point of attachment. DOTA = O=C(O)CN1CCN(CC(=O)O)CCN(CC(=O)*)CCN(CC(=O)O)CC1; Trp(5-OH) = N[C@@H](Cc1c[nH]c2ccc(O)cc12)C(=O)O; NMePhe(4-F) = CN[C@@H](Cc1ccc(F)cc1)C(=O)O; NMehPhe = CN[C@@H](CCc1ccccc1)C(=O)O; Adipoyl = O=C(CCCCC(=O)[*:2])[*:1]; Gly(cPr) = N[C@H](C(=O)O)C1CC1; NMeK = CN[C@@H](CCCCN)C(=O)O; NMeDap = CN[C@@H](CN)C(=O)O

With “2-(4-(((11S,48S)-48-((S)-2-((3S,6S,9S,12S,15S,18S,21S,24S,27S)-9-((1H-indol-3-yl)methyl)-27-acetamido-15-(4-acetamidobutyl)-12-((5-hydroxy-1H-indol-3-yl)methyl)-24-(4-hydroxybenzyl)-6-((S)-1-hydroxyethyl)-21-(hydroxymethyl)-N,4,16,19-tetramethyl-5,8,11,14,17,20,23,26,30-nonaoxo-18-phenethyl-1,4,7,10,13,16,19,22,25-nonaazacyclotriacontane-3-carboxamido)-3-(4-fluorophenyl)propanamido)-11-carbamoyl-5,13,47-trioxo-1-((3aS,4S,6aR)-2-oxohexahydro-1H-thieno[3,4-d]imidazol-4-yl)-16,19,22,25,28,31,34,37,40,43-decaoxa-6,12,46-triazadopentacontan-52-yl) carbamoyl) piperazin-1-yl) acetic acid TFA salt”, the ring closure, yield after HPLC in series [1] (PyAOP/DIEA, 50.0 °C) is 1.9%.

In series [1] (DIC/Oxyma, 75.0 °C), “2-(4-(((S)-5-((S)-2-((3S,6S,9S,12S,15S,18S,21S,24S,27S)-9-((1H-indol-3-yl)methyl)-15-(4-acetamidobutyl)-27-(3-aminopropanamido)-12-((5-hydroxy-1H-indol-3-yl)methyl)-24-(4-hydroxybenzyl)-6-((S)-1-hydroxyethyl)-21-(hydroxymethyl)-N,4,16,19-tetramethyl-5,8,11,14,17,20,23,26,30-nonaoxo-18-phenethyl-1,4,7,10,13,16,19,22,25-nonaazacyclotriacontane-3-carboxamido)-3-(4-fluorophenyl)propanamido)-6-amino-6-oxohexyl)carbamoyl)piperazin-1-yl) acetic acid TFA salt” had a ring closure, yield after HPLC of 4.7%.

Consider “2-(4-(((S)-5-((S)-2-((3S,6S,9S,12S,15S,18S,21S,24S,27S)-9-((1H-indol-3-yl)methyl)-15-(4-acetamidobutyl)-27-(5,39-dioxo-43-((3aS,4S,6aR)-2-oxohexahydro-1H-thieno[3,4-d]imidazol-4-yl)-8,11,14,17,20,23,26,29,32,35-decaoxa-4,38-diazatritetracontanamido)-12-((5-hydroxy-1H-indol-3-yl)methyl)-24-(4-hydroxybenzyl)-6-((S)-1-hydroxyethyl)-21-(hydroxymethyl)-N,4,16,19-tetramethyl-5,8,11,14,17,20,23,26,30-nonaoxo-18-phenethyl-1,4,7,10,13,16,19,22,25-nonaazacyclotriacontane-3-carboxamido)-3-(4-fluorophenyl)propanamido)-6-amino-6-oxohexyl)carbamoyl)piperazin-1-yl) acetic acid TFA salt”, for which the ring closure, yield after HPLC in series [1] (PyAOP/DIEA, 50.0 °C) is 0.5%.

`CC(=O)NCCCC[C@H]1C(=O)N[C@@H](Cc2c[nH]c3ccc(O)cc23)C(=O)N[C@@H](Cc2c[nH]c3ccccc23)C(=O)N[C@@H](C2CC2)C(=O)N(C)[C@H](C(=O)N(C)[C@@H](Cc2ccc(F)cc2)C(=O)N[C@@H](CCCCNC(=O)CN2CCN(CC(=O)O)CCN(CC(=O)O)CCN(CC(=O)O)CC2)C(N)=O)CNC(=O)CCC[C@H](NC(=O)CCC(=O)O)C(=O)N[C@@H](Cc2ccc(O)cc2)C(=O)N[C@@H](CO)C(=O)N(C)[C@@H](CCc2ccccc2)C(=O)N1C` [Example C11]: the IC50 in series [2] (setting [6]) is 0.1 nM; in series [4] (setting [8]), less than 0.1 nM. Besides, the Kd in series [3] (setting [7]) and in series [5] (setting [9]) was less than 0.1 nM throughout.

Regarding `CC(=O)NCCCC[C@H]1C(=O)N[C@@H](Cc2c[nH]c3ccc(O)cc23)C(=O)N[C@@H](Cc2c[nH]c3ccccc23)C(=O)N[C@@H](C2CC2)C(=O)N(C)[C@H](C(=O)N(C)[C@@H](Cc2ccc(F)cc2)C(=O)N[C@@H](CCCCNC(=O)CN2CCN(CC(=O)O)CCN(CC(=O)O)CCN(CC(=O)O)CC2)C(N)=O)CNC(=O)CCCCC(=O)N[C@@H](Cc2ccc(O)cc2)C(=O)N[C@@H](CO)C(=O)N(C)[C@@H](CCc2ccccc2)C(=O)N1C` [Example C14] (YS[NMehPhe][NMeK](Ac)[Trp(5-OH)]W[Gly(cPr)][NMeDap][NMePhe(4-F)]K(DOTA)-NH2; linker N-8 via Adipoyl), the IC50 is 0.3 nM in series [2] (setting [6]) and less than 0.1 nM in series [4] (setting [8]). In addition, the figures for the Kd in series [3] (setting [7]) and in series [5] (setting [9]) were less than 0.1 nM and 0.2 nM, respectively.

Turning to `CC(=O)NCCCC[C@H]1C(=O)N[C@@H](Cc2c[nH]c3ccc(O)cc23)C(=O)N[C@@H](Cc2c[nH]c3ccccc23)C(=O)N[C@@H](C2CC2)C(=O)N(C)[C@H](C(=O)N(C)[C@@H](Cc2ccc(F)cc2)C(=O)N[C@@H](CCCCNC(=O)CN2CCN(CC(=O)O)CCN(CC(=O)O)CCN(CC(=O)O)CC2)C(N)=O)CNC(=O)CCC[C@H](NC(=O)CO)C(=O)N[C@@H](Cc2ccc(O)cc2)C(=O)N[C@@H](CO)C(=O)N(C)[C@@H](CCc2ccccc2)C(=O)N1C` [Example C15], the IC50 is 0.2 nM in series [2] (setting [6]) and less than 0.1 nM in series [4] (setting [8]). Further, the Kd in series [3] (setting [7]) and in series [5] (setting [9]) was less than 0.1 nM in each case.

`CC(=O)NCCCC[C@H]1C(=O)N[C@@H](Cc2c[nH]c3ccc(O)cc23)C(=O)N[C@@H](Cc2c[nH]c3ccccc23)C(=O)N[C@@H]([C@H](C)O)C(=O)N(C)[C@H](C(=O)N(C)[C@@H](Cc2ccc(F)cc2)C(=O)N[C@@H](CCCCNC(=O)N2CCN(CC(=O)O)CC2)C(=O)N[C@H](CCCCNC(=O)CN2CCN(CC(=O)O)CCN(CC(=O)O)CCN(CC(=O)O)CC2)C(N)=O)CNC(=O)CC[C@H](NC(C)=O)C(=O)N[C@@H](Cc2ccc(O)cc2)C(=O)N[C@@H](CO)C(=O)N(C)[C@@H](CCc2ccccc2)C(=O)N1C` [Example C23]: the values for the IC50 in series [2] (setting [6]), in series [2] (setting [10]) and in series [4] (setting [8]) were 76 nM, 49 nM and 62 nM, respectively. In addition, the Kd in series [3] (setting [7]) stood at 47 nM; in series [5] (setting [9]) it was 39 nM.

Turning to `CC(=O)NCCCC[C@H]1C(=O)N[C@@H](Cc2c[nH]c3ccc(O)cc23)C(=O)N[C@@H](Cc2c[nH]c3ccccc23)C(=O)N[C@@H]([C@H](C)O)C(=O)N(C)[C@H](C(=O)N(C)[C@@H](Cc2ccc(F)cc2)C(=O)N[C@@H](CCCCNC(=O)CN2CCN(CC(=O)O)CCN(CC(=O)O)CCN(CC(=O)O)CC2)C(N)=O)CNC(=O)CC[C@H](NC(C)=O)C(=O)N[C@@H](Cc2ccc(O)cc2)C(=O)N[C@@H](CO)C(=O)N(C)[C@@H](CCc2ccccc2)C(=O)N1C` [Example C25], the IC50 is 6.1 nM in series [2] (setting [6]), 3.7 nM in series [2] (setting [10]) and 0.9 nM in series [4] (setting [11]). The Kd amounted to 0.6 nM in series [3] (setting [7]) and 2 nM in series [5] (setting [9]).

Turning to `CC(=O)NCCCC[C@H]1C(=O)N[C@@H](Cc2c[nH]c3ccc(O)cc23)C(=O)N[C@@H](Cc2c[nH]c3ccccc23)C(=O)N[C@@H]([C@H](C)O)C(=O)N(C)[C@H](C(=O)N(C)[C@@H](Cc2ccc(F)cc2)C(=O)N[C@@H](CCCCNC(=O)N2CCN(CC(=O)O)CC2)C(N)=O)CNC(=O)CC[C@H](NC(=O)CCNC(=O)CN2CCN(CC(=O)O)CCN(CC(=O)O)CCN(CC(=O)O)CC2)C(=O)N[C@@H](Cc2ccc(O)cc2)C(=O)N[C@@H](CO)C(=O)N(C)[C@@H](CCc2ccccc2)C(=O)N1C` [Example C28], the IC50 in series [2] (setting [6]) is 4.4 nM; in series [4] (setting [11]) it was 1.3 nM. For the same compound, the Kd in series [3] (setting [7]) was 0.6 nM; in series [5] (setting [9]) it was 3.1 nM.

For the compound `CC(=O)NCCCC[C@H]1C(=O)N[C@@H](Cc2c[nH]c3ccc(O)cc23)C(=O)N[C@@H](Cc2c[nH]c3ccccc23)C(=O)N[C@@H](C2CC2)C(=O)N(C)[C@H](C(=O)N(C)[C@@H](Cc2ccc(F)cc2)C(=O)N[C@@H](CCCCNC(=O)c2ccc(F)nc2)C(N)=O)CNC(=O)CCC[C@H](NC(C)=O)C(=O)N[C@@H](Cc2ccc(O)cc2)C(=O)N[C@@H](CO)C(=O)N(C)[C@@H](CCc2ccccc2)C(=O)N1C` [Example F1], the IC50 in series [2] (setting [6]) is 0.2 nM; in series [4] (read-out: huHER2 TR-FRET IC50) it was less than 0.1 nM. In addition, the Kd in series [3] (setting [7]) is less than 0.1 nM; in series [5] (setting [9]), 0.3 nM.

For the compound `COCCOCCOCCOCCOCCOCCOCCOCCOCCOCCOCCOCCC(=O)N[C@H]1CCCC(=O)NC[C@@H](C(=O)N(C)[C@@H](Cc2ccc(F)cc2)C(=O)N[C@@H](CCCCNC(=O)c2ccc([N+](C)(C)C)nc2)C(N)=O)N(C)C(=O)[C@H](C2CC2)NC(=O)[C@H](Cc2c[nH]c3ccccc23)NC(=O)[C@H](Cc2c[nH]c3ccc(O)cc23)NC(=O)[C@H](CCCCNC(C)=O)N(C)C(=O)[C@H](CCc2ccccc2)N(C)C(=O)[C@H](CO)NC(=O)[C@H](Cc2ccc(O)cc2)NC1=O` [Example F4, TFA salt], the IC50 in series [2] (moHER2 TR-FRET IC50, TR-FRET competition with Cy5 labeled peptide probe, 0.1 nM mouse HER2, 24 h incubation) was 0.3 nM; in series [4] (huHER2 TR-FRET IC50, TR-FRET competition with Cy5 labeled peptide probe, 0.1 nM human HER2, 24 h incubation) it was less than 0.1 nM. For the same compound, the Kd in series [3] is less than 0.1 nM; in series [5], 0.1 nM.
